Assay results from patent US20220378706A1, “PHARMACEUTICAL COMPOSITION COMPRISING PDE9 INHIBITOR” (Eisai R&D Management Co., Ltd., priority 2017, published 2022).

What was measured:
[1] = Single dose clinical study Parts A and C: urine Compound A pharmacokinetics; type: in vivo, human; conditions: for CL renal: human, po
Experimental: Urine Compound A concentrations were analyzed predose and up to 96 hours postdose.
Plasma, urine and CSF concentrations of Compound A were measured using validated liquid chromatography mass spectrometry/mass spectrometry (LC MS/MS) assay methods. CSF concentrations of cGMP were measured using a validated LC-MS/MS assay method.
The following PK parameters were calculated for Compound A: […]

CSF cGMP = assay: Multiple ascending dose study: CSF cGMP; type: in vivo, human
Experimental: Four sequential cohorts of healthy participants (≥50 years and ≤85 years old) were treated with multiple ascending doses of Compound A up to the maximum tolerated dose (MTD). A total of 6 participants per cohort were randomized to Compound A. Proposed doses of Compound A were:
Compound A was administered orally with 240 milliliter (mL) (8 fluid ounces) of water. […]

PDE9 = PDE9 (Homo sapiens, UniProt O76083); conditions: WO2013/051369, WO2014/163147; cited from earlier work
[2] = Elderly subjects Part C, single oral 100 mg
[3] = healthy adults Part A, single oral 10 mg
[4] = healthy adults Part A, single oral 25 mg
[5] = healthy adults Part A, single oral 50 mg
[6] = healthy adults Part A, single oral 100 mg
[7] = healthy adults Part A, single oral 200 mg
[8] = healthy adults Part A, single oral 400 mg
[9] = healthy adults Part A, single oral 800 mg
[10] = healthy adults Part A, single oral 1200 mg
[11] = Day 13, 5 mg QD oral, Parts A and D
[12] = Day 13, 10 mg QD oral, Parts A and D
[13] = Day 13, 25 mg QD oral, Parts A and D
[14] = Day 13, 50 mg QD oral, Parts A and D
[15] = Day 13, 100 mg QD oral, Parts A and D
[16] = Day 13, 200 mg QD oral, Parts A and D
[17] = Day 13, 400 mg QD oral Non-Japanese, Parts A and D

Sequence of PDE9 (O76083 whole entry): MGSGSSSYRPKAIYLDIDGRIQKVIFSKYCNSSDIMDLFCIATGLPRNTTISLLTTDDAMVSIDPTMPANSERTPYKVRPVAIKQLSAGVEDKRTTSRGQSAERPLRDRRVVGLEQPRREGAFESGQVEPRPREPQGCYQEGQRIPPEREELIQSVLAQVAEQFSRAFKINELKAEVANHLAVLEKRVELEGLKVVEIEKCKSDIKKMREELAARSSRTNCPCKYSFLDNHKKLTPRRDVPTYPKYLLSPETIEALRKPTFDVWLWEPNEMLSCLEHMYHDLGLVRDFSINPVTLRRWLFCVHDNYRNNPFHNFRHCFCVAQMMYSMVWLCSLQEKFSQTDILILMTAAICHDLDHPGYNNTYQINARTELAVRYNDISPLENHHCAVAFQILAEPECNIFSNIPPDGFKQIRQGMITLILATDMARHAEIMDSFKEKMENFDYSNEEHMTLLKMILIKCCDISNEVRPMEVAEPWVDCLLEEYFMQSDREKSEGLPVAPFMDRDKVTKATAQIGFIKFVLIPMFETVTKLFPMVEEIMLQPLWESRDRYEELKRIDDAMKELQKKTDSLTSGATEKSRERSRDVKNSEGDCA

SMILES: COc1ncc(C)c(-c2ccc3c(c2)[nH]c(=O)c2cnn([C@H]4CCOC4)c23)c1C [Compound A, (S)-7-(2-methoxy-3,5-dimethylpyridin-4-yl)-1-(tetrahydrofuran-3-yl)-1H-pyrazolo[4,3-c]quin olin-4(5H)-one]
- Ae(0-96 h) GM [1, 2]: 0.228 mg
- Fe(0-96 h) GM [1, 2]: 0.228%
- Ae(0-96 h) GM [1, 3]: 0.0218 mg
- Fe(0-96 h) GM [1, 3]: 0.218%
- Ae(0-96 h) GM [1, 4]: 0.0476 mg
- Fe(0-96 h) GM [1, 4]: 0.190%
- Ae(0-96 h) GM [1, 5]: 0.104 mg
- Fe(0-96 h) GM [1, 5]: 0.208%
- Ae(0-96 h) GM [1, 6]: 0.295 mg
- Fe(0-96 h) GM [1, 6]: 0.295%
- Ae(0-96 h) GM [1, 7]: 0.177 mg
- Fe(0-96 h) GM [1, 7]: 0.0885%
- Ae(0-96 h) GM [1, 8]: 0.615 mg
- Fe(0-96 h) GM [1, 8]: 0.154%
- Ae(0-96 h) GM [1, 9]: 0.762 mg
- Fe(0-96 h) GM [1, 9]: 0.0953%
- Ae(0-96 h) GM [1, 10]: 1.18 mg
- Fe(0-96 h) GM [1, 10]: 0.0979%
- CL renal ([1]; 10 mg, healthy adults Part A, single oral 10 mg): 0.228 mL/min
- CL renal ([1]; 25 mg, healthy adults Part A, single oral 25 mg): 0.202 mL/min
- CL renal ([1]; 50 mg, healthy adults Part A, single oral 50 mg): 0.268 mL/min
- CL renal ([1]; 100 mg, Elderly subjects Part C, single oral 100 mg): 0.22 mL/min
- CL renal ([1]; 100 mg, healthy adults Part A, single oral 100 mg): 0.37 mL/min
- CL renal ([1]; 200 mg, healthy adults Part A, single oral 200 mg): 0.17 mL/min
- CL renal ([1]; 400 mg, healthy adults Part A, single oral 400 mg): 0.337 mL/min
- CL renal ([1]; 800 mg, healthy adults Part A, single oral 800 mg): 0.212 mL/min
- CL renal ([1]; 1200 mg, healthy adults Part A, single oral 1200 mg): 0.287 mL/min
- CSF cGMP % Change from Baseline Mean (CSF cGMP; [11]): 33.162%
- CSF cGMP % Change from Baseline Median (CSF cGMP; [11]): 29.954%
- CSF cGMP Change from Baseline Mean (CSF cGMP; [11]): 0.491 µg/L
- CSF cGMP Change from Baseline Median (CSF cGMP; [11]): 0.350 µg/L
- CSF cGMP Mean (CSF cGMP; [11]): 1.964 µg/L
- CSF cGMP Median (CSF cGMP; [11]): 1.730 µg/L
- CSF cGMP % Change from Baseline Mean (CSF cGMP; [12]): 94.222%
- CSF cGMP % Change from Baseline Median (CSF cGMP; [12]): 104.348%
- CSF cGMP Change from Baseline Mean (CSF cGMP; [12]): 1.276 µg/L
- CSF cGMP Change from Baseline Median (CSF cGMP; [12]): 1.390 µg/L
- CSF cGMP Mean (CSF cGMP; [12]): 2.704 µg/L
- CSF cGMP Median (CSF cGMP; [12]): 2.620 µg/L
- CSF cGMP % Change from Baseline Mean (CSF cGMP; [13]): 170.369%
- CSF cGMP % Change from Baseline Median (CSF cGMP; [13]): 183.494%
- CSF cGMP Change from Baseline Mean (CSF cGMP; [13]): 2.058 µg/L
- CSF cGMP Change from Baseline Median (CSF cGMP; [13]): 1.979 µg/L
- CSF cGMP Mean (CSF cGMP; [13]): 3.283 µg/L
- CSF cGMP Median (CSF cGMP; [13]): 3.225 µg/L
- CSF cGMP % Change from Baseline Mean (CSF cGMP; [14]): 191.445%
- CSF cGMP % Change from Baseline Median (CSF cGMP; [14]): 189.244%
- CSF cGMP Change from Baseline Mean (CSF cGMP; [14]): 3.750 µg/L
- CSF cGMP Change from Baseline Median (CSF cGMP; [14]): 3.260 µg/L
- CSF cGMP Mean (CSF cGMP; [14]): 5.778 µg/L
- CSF cGMP Median (CSF cGMP; [14]): 4.870 µg/L
- CSF cGMP % Change from Baseline Mean (CSF cGMP; [15]): 260.350%
- CSF cGMP % Change from Baseline Median (CSF cGMP; [15]): 258.784%
- CSF cGMP Change from Baseline Mean (CSF cGMP; [15]): 4.352 µg/L
- CSF cGMP Change from Baseline Median (CSF cGMP; [15]): 3.960 µg/L
- CSF cGMP Mean (CSF cGMP; [15]): 6.066 µg/L
- CSF cGMP Median (CSF cGMP; [15]): 5.420 µg/L
- CSF cGMP % Change from Baseline Mean (CSF cGMP; [16]): 201.165%
- CSF cGMP % Change from Baseline Median (CSF cGMP; [16]): 192.932%
- CSF cGMP Change from Baseline Mean (CSF cGMP; [16]): 3.810 µg/L
- CSF cGMP Change from Baseline Median (CSF cGMP; [16]): 3.755 µg/L
- CSF cGMP Mean (CSF cGMP; [16]): 5.702 µg/L
- CSF cGMP Median (CSF cGMP; [16]): 5.640 µg/L
- CSF cGMP % Change from Baseline Mean (CSF cGMP; [17]): 198.283%
- CSF cGMP % Change from Baseline Median (CSF cGMP; [17]): 191.646%
- CSF cGMP Change from Baseline Mean (CSF cGMP; [17]): 3.302 µg/L
- CSF cGMP Change from Baseline Median (CSF cGMP; [17]): 2.920 µg/L
- CSF cGMP Mean (CSF cGMP; [17]): 4.945 µg/L
- CSF cGMP Median (CSF cGMP; [17]): 4.370 µg/L
- CSF cGMP % Change from Baseline Mean (CSF cGMP; Part C, 50 mg, Day 13): 229.107%
- CSF cGMP % Change from Baseline Median (CSF cGMP; Part C, 50 mg, Day 13): 218.491%
- CSF cGMP Change from Baseline Mean (CSF cGMP; Part C, 50 mg, Day 13): 3.206 µg/L
- CSF cGMP Change from Baseline Median (CSF cGMP; Part C, 50 mg, Day 13): 3.065 µg/L
- CSF cGMP Mean (CSF cGMP; Part C, 50 mg, Day 13): 4.620 µg/L
- CSF cGMP Median (CSF cGMP; Part C, 50 mg, Day 13): 4.265 µg/L
- CSF cGMP % Change from Baseline Mean (CSF cGMP; Part C, 50 mg, Day 41): 222.283%
- CSF cGMP % Change from Baseline Median (CSF cGMP; Part C, 50 mg, Day 41): 182.044%
- CSF cGMP Change from Baseline Mean (CSF cGMP; Part C, 50 mg, Day 41): 3.097 µg/L
- CSF cGMP Change from Baseline Median (CSF cGMP; Part C, 50 mg, Day 41): 2.975 µg/L
- CSF cGMP Mean (CSF cGMP; Part C, 50 mg, Day 41): 4.511 µg/L
- CSF cGMP Median (CSF cGMP; Part C, 50 mg, Day 41): 4.650 µg/L
- PDE9 inhibitory activity (PDE9): known to have a PDE9 inhibitory activity
